The values that follow are results of earlier work, collected in PMC8466373, “Plant-Derived and Dietary Hydroxybenzoic Acids—A Comprehensive Study of Structural, Anti-/Pro-Oxidant, Lipophilic, Antimicrobial, and Cytotoxic Activity in MDA-MB-231 and MCF-7 Cell Lines” (Nutrients, 2021).

Converted amounts (≈) assume the structure as drawn.

The subject of series [1] is MDA-MB-231 cells. Set-up: method as in PMID 30211078. As to conditions: in 24 h; read-out: IC50, growth of MDA-MB-231 cells; cited from earlier work.
The subject of series [2] is A2780 cancer cells. As to conditions: incubation time: two days; cited from earlier work.
The subject of series [3] is HepG2 hepatocellular carcinoma cells. Conditions: 100 µM, incubation time: 4 days; cited from earlier work.
Series [4] relates to S. aureus, B. cereus, M. flavus, P. aeruginosa, E. coli, and E. cloacae. As to conditions: all mentioned strains; cited from earlier work.
Series [5] deals with monocytes treated with hydrogen peroxide. As to conditions: 200 μM; cited from earlier work.
In series [6] the test system is A. niger. As to conditions: concentration of 30 mg/mL; cited from earlier work.
Series [7] concerns A. fumigatus. As to conditions: concentration of 30 mg/mL; cited from earlier work.
Series [8] deals with A. flavus. As to conditions: concentration of 30 mg/mL; cited from earlier work.
The test system of series [9] is Chrysosporium species. Conditions: concentration of 30 mg/mL; cited from earlier work.
For series [10], the system named is Botrytis cinerea and Rhizopus stolonifer. As to conditions: concentration of 5 mM; cited from earlier work.
Series [11] has as its system E. coli, B. aureus, and L. monocytogenes. Set-up: method as in doi:10.17221/132/2010-CJFS. Conditions: ref 90; cited from earlier work.

As for `O=C(O)c1cc(O)c(O)c(O)c1` [3,4,5-THB, 3,4,5-trihydroxybenzoic acid], the concentration for half-maximal inhibition (IC50) in series [1] was ~150 µM. Also, the “IC50, A2780 cancer cells” value in series [2] was 45.25 µg/mL (≈ 0.266 mM).
Take `O=C(O)c1ccc(O)c(O)c1` [3,4-DHB, 3,4-dihydroxybenzoic acid]: in series [3], the “HepG2 cells' viability” value was 40%. Moreover, the minimum inhibitory concentration (MIC) in [4] is 3.0 mg/mL (≈ 19.5 mM).
In the case of `O=C(O)c1cccc(O)c1O` [2,3-DHB, 2,3-Dihydroxybenzoic acid], the cell survival in series [5] is 50%. The zone of inhibition is 22 mm in [6], 30 mm in [7], 24 mm in series [8] and 25 mm in [9].
Consider `O=C(O)c1cc(O)ccc1O` [2,5-DHB, 2,5-dihydroxybenzoic acid], for which the “inhibition of spore germination and mycelial growth” value in [10] is given as “completely inhibited”. Moreover, in series [11], the MIC is given as 2.5 mM (≈ 385 µg/mL).

The term IC50 denotes the concentration that gives 50% inhibition. Broadly, the MIC is the least concentration at which growth counts as inhibited. A word on the zone of inhibition: it is the extent of the growth-free halo in a diffusion test.
